Holding throughout (experiment): fluorogenic substrate
Common to all, as to type: biochemical

The target in assay [1] is T1, 20S proteasome β1 subunit (PGPH activity) (Homo sapiens, UniProt P28072).
T1 sequence (P28072 35-239): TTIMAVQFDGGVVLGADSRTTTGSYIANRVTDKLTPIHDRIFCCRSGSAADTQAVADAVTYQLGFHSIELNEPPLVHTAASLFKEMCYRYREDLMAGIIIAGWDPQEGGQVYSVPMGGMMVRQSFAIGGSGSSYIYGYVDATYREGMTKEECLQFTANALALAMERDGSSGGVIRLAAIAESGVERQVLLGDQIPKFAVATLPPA

Assay [2] has as its target T1, 20S proteasome β1 subunit (PGPH activity). The source holds these as a separate data set.
In assay [3] the target is T2, 20S proteasome β5 subunit (chymotrypsin-like activity) (Homo sapiens, UniProt P28074).
T2 sequence (P28074 60-263): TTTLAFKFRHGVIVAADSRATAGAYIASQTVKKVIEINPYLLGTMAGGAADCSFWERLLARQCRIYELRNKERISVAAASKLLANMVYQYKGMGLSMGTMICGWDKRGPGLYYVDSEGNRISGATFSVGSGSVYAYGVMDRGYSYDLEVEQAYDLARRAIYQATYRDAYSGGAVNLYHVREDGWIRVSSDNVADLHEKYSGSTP

SMILES strings stand for the structures. Peptide text beside a SMILES is read from it. * marks the point of attachment. Cbz = O=C(OCc1ccccc1)*

Take `CC(C)C[C@@H](C=O)NC(=O)[C@H](CC(C)C)NC(=O)[C@H](CC(C)C)NC(=O)OCc1ccccc1` [MG132] (Cbz-Leu-Leu-Leu-aldehyde): in assay [1], the “fluorogenic substrate (Bz-LLE-AMC) assay with purified 20S proteasome” value was “MG132, a known proteasome inhibitor for a positive control, showed more potent inhibition on the proteasome ChT-L and PGPH activities”. As for `COc1ccc(O)c2c1Oc1cccc(c1)CCc1ccc(O)c(c1)Oc1ccc(cc1)CC2` [Mar, marchantin M], the IC50 in assay [2] is 5.33 µM; in assay [3], 6.99 µM.

These data come from article PMC3763447 (Cell Death & Disease, 2013).
